How the values were obtained:
[1] = system: BEAS-2B human bronchial epithelial cell line; test: Gene expression change by high-throughput RNA sequencing (NextSeq 500) in ketone-exposed BEAS-2B cells; assay type: cell-based
Method: RNA was extracted from cell samples of ketone-exposed and non-ketone-exposed groups using a TRIzol reagent (Life Technologies, USA) in accordance with the manufacturer's directions to isolate total RNA and the total RNA was purified using a RNeasy mini kit (Qiagen, USA). The concentration of each total RNA sample was determined by a ND-2000 spectrophotometer (Thermo Inc., DE, USA) as a spectrophotometer and Agilent 2100 Bioanalyzer (Agilent Technologies, USA).
The establishment of libraries from the total RNA obtained in Example 2-1 in the experimental group and the normal control group exposed to the ketones was carried out using a QuantSeq 3′ mRNA-Seq Library Prep Kit (Lexogen, Inc., Austria) in accordance with the manufacturer's directions. 500 ng of the total RNA was hybridized with an oligo-dT primer including an Illumina-compatible sequence at the 5′ end of RNA, followed by reverse transcription. After degradation of the RNA template, a second strand was synthesized using a random primer including an Illumina-compatible linker sequence at the 5′ end thereof. Double-stranded libraries were purified using magnetic beads to remove all reaction components. The library was amplified in order to add the entire adapter sequence required for cluster production, and the completed cDNA library was purified from the PCR components.
Sequencing was performed by high-throughput sequencing as single-end 75 sequencing using a NextSeq 500 (IIlumina, Inc., USA). Read count (RC) data was processed based on the quantile normalization method using EdgeR in R (R development Core Team, 2016) using Bioconductor (Gentleman et al., 2004). Gene classification was based on searches performed on DAVID (http://david.abcc.ncifcrf.gov/) and the Medline database (http://www.ncbi.nlm.nih.gov/).
The extracted data were analyzed through normalization using Agilent GeneSpring GX 12.6.1 (Agilent technologies, CA, USA) to analyze the expression pattern of each gene.

[2] = system: BEAS-2B human bronchial epithelial cell line; test: MTT assay, cytotoxicity of ketone compounds in BEAS-2B cell line; assay type: cell-based; conditions: human, 48 h
Method: BEAS-2B (Korean Cell Line Bank), a human bronchial epithelial cell line, was cultured using RPMI 1640 medium (Gibco, USA) supplemented with 10% FBS until the cells grew to about a confluence of 70 to 80% in a 100 mm dish.
Among ketones belonging to mVOCs (microbial volatile organic compounds) exposed to the environment, acetone, 2-butanone, 2-pentanone, 2-hexanone and 2-heptanone were selected, and the chemicals were dissolved in filtered distilled water (DW). A vehicle concentration was set to 0.1% or less in all experiments.
MTT assay using a BEAS-2B cell line was performed in accordance with the method of Mossman et al. (J. Immunol. Methods, 65, 55-63, 1983).
Specifically, the cells were seeded at a density of 3.5×10^4 cells/well in a 24-well plate and treated with the five ketone compounds dissolved in filtered distilled water, prepared in Example 1-2. After 48 hours, the result was mixed with 5 mg/ml of MTT (3-4,5-dimethylthiazol-2,5-diphenyltetrazolium bromide), added to a tube and incubated at 37° C. for 3 hours. Then, the medium was removed, the formed formazan crystal was dissolved in 500 μl of DMSO, and then 100 μl of the solution was transferred to a 96-well plate to measure an OD (optical density) value at 540 nm.

[3] = IC5 conc.: Acetone 5.38, 2-Butanone 22.27, 2-Pentanone 5.24, 2-Hexanone 14.82, 2-Heptanone 5.05 mM
[4] = IC20 conc.: Acetone 71.90, 2-Butanone 106.21, 2-Pentanone 39.38, 2-Hexanone 52.51, 2-Heptanone 20.22 mM

CCCCCC(C)=O [2-Heptanone, 2-heptanone]
Fold change ADRA2A (NM_000681) [1, 3]: 0.321
Fold change ATRNL1 (NR_074088) [1, 3]: 3.365
Fold change C12orf79 (NR_046159) [1, 3]: 0.213
Fold change C14orf80 (NR_046159) [1, 3]: 0.354
Fold change CALML3 (NM_001286399) [1, 3]: 0.354
Fold change CCDC184 (NM_001013635) [1, 3]: 4.098
Fold change CD37 (NM_001040031) [1, 3]: 5.216
Fold change CDHR1 (NM_001171971) [1, 3]: 0.386
Fold change CHL1 (NM_001253387) [1, 3]: 0.122
Fold change COL4A3 (NM_000091) [1, 3]: 4.774
Fold change CRLF2 (NM_022148) [1, 3]: 0.355
Fold change CSF3R (NM_172313) [1, 3]: 0.354
Fold change DNMBP-AS1 (NR_024130) [1, 3]: 2.035
Fold change EGR1 (NM_001964) [1, 3]: 0.410
Fold change GNA14 (NM_004297) [1, 3]: 4.971
Fold change LOC728752 (NR_036504) [1, 3]: 5.873
Fold change PAX8 (NM_003466) [1, 3]: 4.275
Fold change PRRT3-AS1 (NR_046734) [1, 3]: 2.285
Fold change RBP3 (NM_002900) [1, 3]: 0.354
Fold change SEPT14 (NM_207366) [1, 3]: 0.214
Fold change SERPINA12 (NM_001304461) [1, 3]: 0.354
Fold change SLC13A4 (NM_012450) [1, 3]: 4.638
Fold change SPOCK2 (NM_001244950) [1, 3]: 4.800
Fold change TSPAN1 (NM_005727) [1, 3]: 4.660
Fold change USP12-AB1 (NR_046647) [1, 3]: 11.319
Fold change VIPR†-AS1 (NR_046654) [1, 3]: 0.354
Fold change XIRP1 (NM_001198621) [1, 3]: 0.354
Fold change ZFP69B (NM_023070) [1, 3]: 3.346
Fold change ZNF432 (NM_014650) [1, 3]: 3.207
Fold change ZNF487 (NR_026693) [1, 3]: 0.354
Fold change ADRA2A (NM_000681) [1, 4]: 0.179
Fold change ATRNL1 (NR_074088) [1, 4]: 3.204
Fold change C12orf79 (NR_046159) [1, 4]: 0.213
Fold change C14orf80 (NR_046159) [1, 4]: 0.354
Fold change CALML3 (NM_001286399) [1, 4]: 0.354
Fold change CCDC184 (NM_001013635) [1, 4]: 6.381
Fold change CD37 (NM_001040031) [1, 4]: 3.227
Fold change CDHR1 (NM_001171971) [1, 4]: 0.216
Fold change CHL1 (NM_001253387) [1, 4]: 0.335
Fold change COL4A3 (NM_000091) [1, 4]: 8.193
Fold change CRLF2 (NM_022148) [1, 4]: 0.355
Fold change CSF3R (NM_172313) [1, 4]: 0.354
Fold change DNMBP-AS1 (NR_024130) [1, 4]: 11.098
Fold change EGR1 (NM_001964) [1, 4]: 0.381
Fold change GNA14 (NM_004297) [1, 4]: 4.498
Fold change LOC728752 (NR_036504) [1, 4]: 5.440
Fold change PAX8 (NM_003466) [1, 4]: 4.602
Fold change PRRT3-AS1 (NR_046734) [1, 4]: 2.525
Fold change RBP3 (NM_002900) [1, 4]: 0.354
Fold change SEPT14 (NM_207366) [1, 4]: 0.214
Fold change SERPINA12 (NM_001304461) [1, 4]: 0.354
Fold change SLC13A4 (NM_012450) [1, 4]: 11.825
Fold change SPOCK2 (NM_001244950) [1, 4]: 2.838
Fold change TSPAN1 (NM_005727) [1, 4]: 3.058
Fold change USP12-AB1 (NR_046647) [1, 4]: 4.509
Fold change VIPR†-AS1 (NR_046654) [1, 4]: 0.354
Fold change XIRP1 (NM_001198621) [1, 4]: 0.354
Fold change ZFP69B (NM_023070) [1, 4]: 2.674
Fold change ZNF432 (NM_014650) [1, 4]: 4.845
Fold change ZNF487 (NR_026693) [1, 4]: 0.354
concentration (105) providing a survival rate (viability) of 95% [2]: 5050 µM
concentration (1020) providing a survival rate (viability) of 80% [2]: 20220 µM

CCCCC(C)=O [2-Hexanone, 2-hexanone]
Fold change ADRA2A (NM_000681) [1, 3]: 0.410
Fold change ATRNL1 (NR_074088) [1, 3]: 2.058
Fold change C12orf79 (NR_046159) [1, 3]: 0.218
Fold change C14orf80 (NR_046159) [1, 3]: 0.358
Fold change CALML3 (NM_001286399) [1, 3]: 0.358
Fold change CCDC184 (NM_001013635) [1, 3]: 3.872
Fold change CD37 (NM_001040031) [1, 3]: 4.214
Fold change CDHR1 (NM_001171971) [1, 3]: 0.228
Fold change CHL1 (NM_001253387) [1, 3]: 0.296
Fold change COL4A3 (NM_000091) [1, 3]: 4.765
Fold change CRLF2 (NM_022148) [1, 3]: 0.362
Fold change CSF3R (NM_172313) [1, 3]: 0.358
Fold change DNMBP-AS1 (NR_024130) [1, 3]: 14.919
Fold change EGR1 (NM_001964) [1, 3]: 0.448
Fold change GNA14 (NM_004297) [1, 3]: 8.515
Fold change LOC728752 (NR_036504) [1, 3]: 6.212
Fold change PAX8 (NM_003466) [1, 3]: 5.964
Fold change PRRT3-AS1 (NR_046734) [1, 3]: 2.811
Fold change RBP3 (NM_002900) [1, 3]: 0.358
Fold change SEPT14 (NM_207366) [1, 3]: 0.220
Fold change SERPINA12 (NM_001304461) [1, 3]: 0.358
Fold change SLC13A4 (NM_012450) [1, 3]: 4.947
Fold change SPOCK2 (NM_001244950) [1, 3]: 4.851
Fold change TSPAN1 (NM_005727) [1, 3]: 2.828
Fold change USP12-AB1 (NR_046647) [1, 3]: 3.862
Fold change VIPR†-AS1 (NR_046654) [1, 3]: 0.358
Fold change XIRP1 (NM_001198621) [1, 3]: 0.358
Fold change ZFP69B (NM_023070) [1, 3]: 4.095
Fold change ZNF432 (NM_014650) [1, 3]: 5.206
Fold change ZNF487 (NR_026693) [1, 3]: 0.358
Fold change ADRA2A (NM_000681) [1, 4]: 0.179
Fold change ATRNL1 (NR_074088) [1, 4]: 2.281
Fold change C12orf79 (NR_046159) [1, 4]: 0.213
Fold change C14orf80 (NR_046159) [1, 4]: 0.354
Fold change CALML3 (NM_001286399) [1, 4]: 0.354
Fold change CCDC184 (NM_001013635) [1, 4]: 6.982
Fold change CD37 (NM_001040031) [1, 4]: 2.819
Fold change CDHR1 (NM_001171971) [1, 4]: 0.432
Fold change CHL1 (NM_001253387) [1, 4]: 0.364
Fold change COL4A3 (NM_000091) [1, 4]: 4.424
Fold change CRLF2 (NM_022148) [1, 4]: 0.355
Fold change CSF3R (NM_172313) [1, 4]: 0.354
Fold change DNMBP-AS1 (NR_024130) [1, 4]: 5.009
Fold change EGR1 (NM_001964) [1, 4]: 0.328
Fold change GNA14 (NM_004297) [1, 4]: 4.986
Fold change LOC728752 (NR_036504) [1, 4]: 6.982
Fold change PAX8 (NM_003466) [1, 4]: 2.992
Fold change PRRT3-AS1 (NR_046734) [1, 4]: 3.123
Fold change RBP3 (NM_002900) [1, 4]: 0.354
Fold change SEPT14 (NM_207366) [1, 4]: 0.214
Fold change SERPINA12 (NM_001304461) [1, 4]: 0.354
Fold change SLC13A4 (NM_012450) [1, 4]: 7.012
Fold change SPOCK2 (NM_001244950) [1, 4]: 3.833
Fold change TSPAN1 (NM_005727) [1, 4]: 4.272
Fold change USP12-AB1 (NR_046647) [1, 4]: 3.988
Fold change VIPR†-AS1 (NR_046654) [1, 4]: 0.354
Fold change XIRP1 (NM_001198621) [1, 4]: 0.354
Fold change ZFP69B (NM_023070) [1, 4]: 2.573
Fold change ZNF432 (NM_014650) [1, 4]: 4.577
Fold change ZNF487 (NR_026693) [1, 4]: 0.354
concentration (105) providing a survival rate (viability) of 95% [2]: 14820 µM
concentration (1020) providing a survival rate (viability) of 80% [2]: 52510 µM

From US20210115509A1, “BIOMARKER FOR IDENTIFYING SPECIFIC EXPOSURE TO KETONES AND METHOD OF IDENTIFICATION USING THE SAME” (KOREA INSTITUTE OF SCIENCE AND TECHNOLOGY, priority 2019, published 2021)
